# In patent publication US8722052B2, “Vaccinia virus protein A46 peptide and use thereof” (priority 2008, dated 2014):
# “Also recorded” adds a separate entry of the source.
# Columns and labels:
# TLR4 = experiment: LPS-induced TNFα in PMA-differentiated U937 cells, ELISA; format: cell-based, human; details: peptide 5 or 20 μM 1 h before 100 ng/ml LPS, 24 h
# Procedure: FIGS. 3A and B are bar charts showing the effect of peptides derived from A46 on LPS-induced TNFα in human U937 cells. Cells were differentiated with 200 nM PMA and seeded in 96 well plates (2×10^5 cells/ml) 24 hours before treatment. A46 peptides were added to the cells at a concentration of 5 or 20 μM 1 hour before stimulating with 100 ng/ml LPS. Supernatants were collected 24 hours after stimulation and assayed for TNFα by ELISA. No peptides were added into the control wells (black bars). (A) peptides A461-A467 (SEQ ID NO. 17 to 23). (B) peptides A468-A4614 (SEQ ID NO. 24 to 30) (excluding A4612 SEQ ID NO. 28). Data is representative of at least two experiments each performed in triplicate and is expressed as mean±s.d;
# Cytokine and chemokine production from cells or mouse serum was measured by ELISA using Duoset kits from R&D systems, according to the manufacturer's instructions.
# LPS is a component of a cell wall of Gram-negative bacteria which is recognised by a homodimer of TLR4 and signals to NFκB via both a MyD88- and TRIF-dependent pathway (O'Neill and Bowie, 2007). In order to examine the effect of the peptides on TLR4-dependent gene induction in human cells, the human monocytic lymphoma cell line U937 was used. U937 cells were differentiated into macrophages by treatment with 200 nM PMA for 24 hours before any further manipulations. […]
# JNK = experiment: LPS-induced phospho-JNK in RAW264.7 cells, immunoblot; format: cell-based, murine; details: peptide 5 μM, 10 ng/ml LPS 5-60 min
# Procedure: FIGS. 27A, B and C are immunoblots showing the effect of A464 on LPS-induced appearance of phospho-JNK in murine RAW264.7 cells. Cells were set up as for FIG. 25 above and 5 μM A467 (SEQ ID NO. 23) or A464 (SEQ ID NO. 20) were added to the wells 1 hour before stimulation. Cells were stimulated with 10 ng/ml LPS for a period of 5, 15, 30 or 60 min, then harvested and lysed. Proteins were resolved by SDS-PAGE, and transferred membranes immunoblotted for phospho-JNK (A), total JNK (B) or β-actin (C). The blots shown are representative of two experiments;
# RAW264.7 cells were seeded at a density of 1×10^5 cells/ml in 6 well plates. […] The protein concentration was determined by monitoring the change in the solution absorbance at 280 nm using a spectrophotometer compared to protein standards. […] Thereafter, the membranes were washed, incubated in appropriate secondary antibody and then developed using standard enhanced chemi-luminescence (ECL) reagents.
# Next, the effect of A464 (SEQ ID No. 20) on MAPK activation was measured by assaying the phosphorylation of p38 and JNK by Western blot. […] As before the protein concentration in the samples was determined by Bradford assay and the accuracy of the loading was confirmed by re-probing the blot for β-actin. […]
# Sequence of TLR4 (O00206 24-839): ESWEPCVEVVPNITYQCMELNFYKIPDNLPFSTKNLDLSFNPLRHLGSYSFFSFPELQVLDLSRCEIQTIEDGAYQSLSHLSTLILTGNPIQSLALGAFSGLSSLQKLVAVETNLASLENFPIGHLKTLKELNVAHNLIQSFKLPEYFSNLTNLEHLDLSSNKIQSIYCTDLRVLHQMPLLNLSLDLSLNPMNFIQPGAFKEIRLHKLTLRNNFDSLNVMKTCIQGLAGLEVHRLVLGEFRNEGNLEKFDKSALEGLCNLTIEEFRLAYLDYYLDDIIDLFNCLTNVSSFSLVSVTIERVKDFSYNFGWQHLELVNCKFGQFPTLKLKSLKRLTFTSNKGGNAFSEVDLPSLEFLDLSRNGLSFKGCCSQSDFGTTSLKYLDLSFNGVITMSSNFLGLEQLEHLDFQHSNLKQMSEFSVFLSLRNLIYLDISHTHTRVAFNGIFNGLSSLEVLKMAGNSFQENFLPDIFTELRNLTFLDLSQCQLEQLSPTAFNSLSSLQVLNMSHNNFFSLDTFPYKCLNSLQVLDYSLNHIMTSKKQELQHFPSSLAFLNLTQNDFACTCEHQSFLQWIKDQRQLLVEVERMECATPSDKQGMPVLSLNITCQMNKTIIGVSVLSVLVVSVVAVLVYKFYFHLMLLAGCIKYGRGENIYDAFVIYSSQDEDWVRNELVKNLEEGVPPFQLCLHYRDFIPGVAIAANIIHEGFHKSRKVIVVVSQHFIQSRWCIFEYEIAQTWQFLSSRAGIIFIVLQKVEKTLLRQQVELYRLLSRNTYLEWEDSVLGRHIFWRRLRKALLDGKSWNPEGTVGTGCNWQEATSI
# Sequence of TLR4 (Q9Y6Y9 17-160 partner limits assumed): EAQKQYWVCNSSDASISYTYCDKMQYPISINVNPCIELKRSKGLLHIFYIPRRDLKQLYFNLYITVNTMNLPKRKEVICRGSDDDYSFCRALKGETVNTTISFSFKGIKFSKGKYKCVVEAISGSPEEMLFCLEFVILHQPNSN
sequence,measurement,setting,value
KYSFKLILAEYRRRRRRRRR [Peptide A464],inhibition of LPS (TLR4)-induced TNFα production,TLR4,potently inhibit TLR4-mediated TNFα production; also recorded: very potent inhibitory effect
same,effect on LPS-induced phosphorylation of JNK,JNK,completely inhibited phosphorylation of JNK at all times of the LPS stimulation
